Assay results from PubChem BioAssay AID248 (DTP/NCI, 2004).
Values joined by “and” are separate entries in the source; they are usually repeats but may differ in a detail not shown here. Equal values may be shown once. Toxic doses and inconclusive results are not listed. Rule as the data show it: active = T/C of 150% or more; inactive = T/C below 125%.

System: L1210 leukemia ip in BDF1 mice, survival T/C
Assay: NCI In Vivo Anticancer Drug Screen. Data for tumor model L1210 Leukemia (intraperitoneal) in B6D2F1 (BDF1) mice
Settings: endpoint: mean survival time, higher = longer survival
How it was run: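 In this screen, tumor-bearing mice given compound are compared to those given vehicle, and their survival values are reported as a treated-to-control quotient.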

[1] = dose: 100.0 mg/kg/injection, schedule: Q04DX002 (ip), vehicle: saline with Tween-80
[2] = dose: 200.0 mg/kg/injection, schedule: Q04DX002 (ip), vehicle: saline with Tween-80
[3] = dose: 100.0 mg/kg/injection, schedule: Q04DX003 (ip), vehicle: Klucel (hydroxypropylcellulose) (HPC)
[4] = dose: 200.0 mg/kg/injection, schedule: Q01DX009 (ip), vehicle: Klucel (hydroxypropylcellulose) (HPC)
[5] = dose: 200.0 mg/kg/injection, schedule: Q04DX003 (ip), vehicle: Klucel (hydroxypropylcellulose) (HPC)
[6] = dose: 400.0 mg/kg/injection, schedule: Q01DX009 (ip), vehicle: Klucel (hydroxypropylcellulose) (HPC)
[7] = dose: 400.0 mg/kg/injection, schedule: Q04DX003 (ip), vehicle: Klucel (hydroxypropylcellulose) (HPC)
[8] = dose: 50.0 mg/kg/injection, schedule: Q01DX001 (ip), vehicle: saline
[9] = dose: 100.0 mg/kg/injection, schedule: Q01DX001 (ip), vehicle: saline
[10] = dose: 50.0 mg/kg/injection, schedule: Q01DX001 (ip), vehicle: carboxymethylcellulose (CMC)
[11] = dose: 200.0 mg/kg/injection, schedule: Q01DX001 (ip), vehicle: carboxymethylcellulose (CMC)
[12] = dose: 400.0 mg/kg/injection, schedule: Q01DX001 (ip), vehicle: carboxymethylcellulose (CMC)
[13] = dose: 100.0 mg/kg/injection, schedule: Q04DX003 (ip), vehicle: saline
[14] = dose: 200.0 mg/kg/injection, schedule: Q04DX003 (ip), vehicle: saline
[15] = dose: 400.0 mg/kg/injection, schedule: Q04DX003 (ip), vehicle: saline
[16] = dose: 200.0 mg/kg/injection, schedule: Q01DX001 (ip), vehicle: saline
[17] = dose: 400.0 mg/kg/injection, schedule: Q01DX001 (ip), vehicle: saline
[18] = dose: 50.0 mg/kg/injection, schedule: Q04DX002 (ip), vehicle: saline with Tween-80

Measured: T/C

CCS(=O)(=O)N1CCCC(C)C1 (stereo not given)
inactive: [1] 105 % of control | [2] 92 % of control | dose: 400.0 mg/kg/injection, schedule: Q04DX002 (ip), vehicle: saline with Tween-80 92 % of control

CN(C)C(N1CC1)N1CC1
inactive: dose: 10.0 mg/kg/injection, schedule: Q04DX002 (ip), vehicle: saline 112 % of control | dose: 20.0 mg/kg/injection, schedule: Q04DX002 (ip), vehicle: saline 108 % of control | dose: 40.0 mg/kg/injection, schedule: Q04DX002 (ip), vehicle: saline 97 % of control

CCCCCCC(/C=C/C=C/c1ccccc1)=N\O
inactive: [3] 96 % of control | [4] 91 % of control | [5] 90 % of control | [6] 91 % of control | [7] 98 % of control

COc1ccc(C2CCCCC2O)cc1 (stereo not given)
inactive: dose: 100.0 mg/kg/injection, schedule: Q01DX009 (ip), vehicle: Klucel (hydroxypropylcellulose) (HPC) 94 % of control | [3] 97 % of control | [4] 99 % of control | [5] 91 % of control | [6] 99 % of control | [7] 93 % of control

CC(=O)Oc1ccc(N)cc1OC(C)=O
inactive: dose: 150.0 mg/kg/injection, schedule: Q01DX001 (ip), vehicle: steriod suspending solution 95 % of control

COC1CCC(/C(C#N)=C/c2ccco2)CC1 (stereo not given)
inactive: [1] 97 % of control and 89 % of control | [2] 94 % of control and 99 % of control | dose: 800.0 mg/kg/injection, schedule: Q04DX002 (ip), vehicle: saline with Tween-80 103 % of control

CC(C)C/C=C/C(=O)CC(=O)OC(C)C
inactive: dose: 75.0 mg/kg/injection, schedule: Q01DX001 (ip), vehicle: other 97 % of control | dose: 150.0 mg/kg/injection, schedule: Q01DX001 (ip), vehicle: other 101 % of control | dose: 300.0 mg/kg/injection, schedule: Q01DX001 (ip), vehicle: other 117 % of control

CCOC(=O)C1CC(O)CN1 (stereo not given)
inactive: dose: 100.0 mg/kg/injection, schedule: Q04DX003 (ip), vehicle: saline sonified 97 % of control | dose: 200.0 mg/kg/injection, schedule: Q04DX003 (ip), vehicle: saline sonified 100 % of control | dose: 400.0 mg/kg/injection, schedule: Q04DX003 (ip), vehicle: saline sonified 87 % of control

COc1ccc(C2(OC)Oc3cc(OC)ccc3C(=O)C2(O)OC)cc1 (stereo not given)
inactive: [8] 98 % of control | [9] 104 % of control

c1ccc2c(c1)ccc1cc3c4ccccc4c4ccccc4c3cc12
inactive: [10] 97 % of control | [11] 90 % of control | [12] 106 % of control

CC(=O)CC(=O)NCCNCCNC(=O)CC(C)=O
inactive: dose: 100.0 mg/kg/injection, schedule: Q01DX009 (ip), vehicle: saline 88 % of control | [13] 91 % of control | dose: 200.0 mg/kg/injection, schedule: Q01DX009 (ip), vehicle: saline 95 % of control | [14] 98 % of control | dose: 400.0 mg/kg/injection, schedule: Q01DX009 (ip), vehicle: saline 97 % of control | [15] 100 % of control

CN=C(N)c1ccc(N=C(N)c2ccc(N=C(N)c3ccc(NC(=O)c4ccc(C(=O)Nc5ccc(C(N)=Nc6ccc(C(N)=Nc7ccc(C(N)=NC)cc7)cc6)cc5)cc4)cc3)cc2)cc1
inactive: dose: 6.25 mg/kg/injection, schedule: Q01DX Z (ip), vehicle: water 110 % of control | dose: 12.5 mg/kg/injection, schedule: Q01DX Z (ip), vehicle: water 120 % of control | dose: 50.0 mg/kg/injection, schedule: Q01DX Z (ip), vehicle: water 121 % of control

CCCCCCCCCCCCCCCCCCCCCCCC(=O)OCC
inactive: dose: 400.0 mg/kg/injection, schedule: Q04DX003 (ip), vehicle: saline with Tween-80 92 % of control

CCCCP(=S)(CCCC)C1CCCC1
inactive: [3] 104 % of control | [5] 107 % of control | [7] 101 % of control

O=C(O)c1ccc([N+](=O)[O-])cc1S(=O)(=O)O
inactive: [9] 102 % of control | [16] 102 % of control | [17] 100 % of control

CC(C)c1ccccc1OS(=O)(=O)c1ccc([N+](=O)[O-])cc1
inactive: dose: 100.0 mg/kg/injection, schedule: Q01DX009 (ip), vehicle: saline with Tween-80 103 % of control | [3] 103 % of control | dose: 200.0 mg/kg/injection, schedule: Q01DX009 (ip), vehicle: saline with Tween-80 92 % of control | [5] 105 % of control | dose: 400.0 mg/kg/injection, schedule: Q01DX009 (ip), vehicle: saline with Tween-80 90 % of control | [7] 92 % of control

O=C(O)C1(O)c2ccccc2-c2ccc(Cl)cc21 (stereo not given)
inactive: [10] 103 % of control | dose: 100.0 mg/kg/injection, schedule: Q01DX001 (ip), vehicle: carboxymethylcellulose (CMC) 105 % of control | [11] 114 % of control | [12] 103 % of control

COc1cc2nc3cc(Nc4ccccc4)c(=O)c(C(C)=O)c-3n(CCN3CCOCC3)c2cc1OC
inactive: dose: 100.0 mg/kg/injection, schedule: Q04DX002 (ip), vehicle: Klucel (hydroxypropylcellulose) (HPC) 90 % of control | dose: 200.0 mg/kg/injection, schedule: Q04DX002 (ip), vehicle: Klucel (hydroxypropylcellulose) (HPC) 87 % of control | dose: 400.0 mg/kg/injection, schedule: Q04DX002 (ip), vehicle: Klucel (hydroxypropylcellulose) (HPC) 107 % of control

N#Cc1ccc(C(CCCCC(Cc2ccccc2)c2ccc(C#N)cc2)Cc2ccccc2)cc1 (stereo not given)
inactive: [8] 93 % of control | [16] 102 % of control | [17] 104 % of control

CCCCCCSc1ccc2c(cc1=O)C(NC(C)=O)CCc1cc(OC)c(OC)c(OC)c1-2 (stereo not given)
inactive: dose: 12.5 mg/kg/injection, schedule: Q04DX002 (ip), vehicle: saline 95 % of control | dose: 25.0 mg/kg/injection, schedule: Q04DX002 (ip), vehicle: saline 95 % of control | dose: 50.0 mg/kg/injection, schedule: Q04DX002 (ip), vehicle: saline 104 % of control

CCOC(=O)c1cnc(SC)nc1Nc1ccc([N+](=O)[O-])cc1
inactive: dose: 25.0 mg/kg/injection, schedule: Q01DX001 (ip), vehicle: Klucel (hydroxypropylcellulose) (HPC) 91 % of control | dose: 50.0 mg/kg/injection, schedule: Q01DX001 (ip), vehicle: Klucel (hydroxypropylcellulose) (HPC) 89 % of control | dose: 100.0 mg/kg/injection, schedule: Q01DX001 (ip), vehicle: Klucel (hydroxypropylcellulose) (HPC) 90 % of control

Cc1onc(-c2ccccc2Cl)c1C(=O)NC(=S)NC1CC(C)CC(C)(C)C1 (stereo not given)
inactive: dose: 25.0 mg/kg/injection, schedule: Q04DX002 (ip), vehicle: saline with Tween-80 97 % of control | [18] 90 % of control | [1] 90 % of control

Oc1ccccc1-c1nc2ccccc2o1
inactive: [18] 98 % of control | [1] 95 % of control | [2] 92 % of control

CCCCN(CCCC)CCSc1c(Cl)c(Cl)c(Cl)c(Cl)c1Cl
inactive: dose: 320.0 mg/kg/injection, schedule: Q01DX Z (ip), vehicle: saline 99 % of control | dose: 480.0 mg/kg/injection, schedule: Q01DX Z (ip), vehicle: saline 90 % of control

Nc1c(S(=O)(=O)O)cc(Nc2cccc(CO)c2)c2c1C(=O)c1ccccc1C2=O
inactive: dose: 5.0 mg/kg/injection, schedule: Q01DX001 (ip), vehicle: saline 105 % of control | dose: 10.0 mg/kg/injection, schedule: Q01DX001 (ip), vehicle: saline 103 % of control | dose: 20.0 mg/kg/injection, schedule: Q01DX001 (ip), vehicle: saline 101 % of control | dose: 40.0 mg/kg/injection, schedule: Q01DX001 (ip), vehicle: saline 94 % of control | dose: 80.0 mg/kg/injection, schedule: Q01DX001 (ip), vehicle: saline 95 % of control | [9] 95 % of control | [13] 101 % of control | [16] 93 % of control | [14] 104 % of control | [15] 92 % of control

CCCCC(C(=O)O)(c1ccccc1)c1ccccc1
inactive: dose: 75.0 mg/kg/injection, schedule: Q04DX002 (ip), vehicle: gum acacia 96 % of control | dose: 150.0 mg/kg/injection, schedule: Q04DX002 (ip), vehicle: gum acacia 107 % of control
